# Data as given in patent publication US9855257B2, “4-alkynyl imidazole derivative and medicine comprising same as active ingredient” (KAKEN PHARMACEUTICAL CO., LTD., priority 2013, dated 2018).
# Experiments:
# [1] = molecular target: T1, rat EP4 receptor (Rattus norvegicus, UniProt P43114); assay: Rat EP4 receptor antagonistic action by the reporter assay method; format: cell-based; settings: COS-7 cells expressing rat EP4 receptor, CRE-LUC reporter, PGE2 1×10^−8 mol/L; geometric mean of three cases; read-out: Intensity of EP4 Receptor Antagonistic Activity IC50
# T1 construct: its translated region was integrated into the expression vector pShooter (Invitrogen); expressed in transfected cells; host or cells: COS-7 cells (Cercopithecus aethiops kidney), transiently co-transfected with ratEP4-pShooter and a CRE-LUC reporter vector
# Protocol: Test for Evaluating the Rat EP4 Receptor Antagonistic Action by the Reporter Assay Method
# The first step was the cloning of the rat EP4 receptor. Total RNA was prepared from the kidney extracted from rats. With the total RNA used as a template, the rat EP4 receptor gene was cloned by RT-PCR and its translated region was integrated into the expression vector pShooter (Invitrogen) to prepare a rat EP4 receptor expressing vector (ratEP4-pShooter).
# In the next step, rat EP4 receptor expressing cells for use in the reporter assay were prepared. COS-7 cells (derived from the kidney of Cercopithecus aethiops) were cultured in Dulbecco's Modified Eagle Medium (DMEM) (supplemented with 10% fetal bovine serum) in a 75-cm^2 cell culture flask. After the cells proliferated to a subconfluent state, the medium was removed and rinsed with phosphate buffered physiological saline (PBS). Trypsin-EDTA and a growth medium were used to recover the cells, which were then centrifuged. The supernatant was removed and the cells were suspended in DMEM. The cell suspension was seeded on a 96-well plate at a density of 2×10^4 cells/100 μL/well and cultured. The DMEM was mixed with Plus reagent, Lipofectamine 2000, the rat EP4 receptor expressing vector (ratEP4-pShooter) and a CRE-LUC reporter vector (CLONTECH) to prepare a transfection solution. Three hours after the seeding of the cells, 50 μL of the medium was removed and 50 μL/well of the transfection solution was added, followed by culture overnight. Negative control cells were prepared using pShooter in place of the receptor expressing vector. The cells were seeded on a 96-well plate for reporter assay and cultured.
# The medium on the 96-well plate was removed and a test compound was added in an amount of 50 μL/well. After ca. 30-min culture, a PGE2 solution (2×10^−8 mol/L) was added in an amount of 50 μL/well (final concentration of PGE2: 1×10^−8 mol/L). As a PGE2-free control, there were provided wells to which a test medium had been added in an amount of 50 μL/well. About three hours later, the medium was removed and reporter assay was performed in accordance with the protocol accompanying the Steady-Glo Luciferase Assay System kit. Luminous intensity was measured with a microplate reader (Fusion-FPα, PerkinElmer) and EP4 receptor antagonistic activity (%) was determined by the following calculation formula: EP4 receptor antagonistic activity (%)=[1−(RLU(A,X)−RLU(0))/(RLU(PGE2)−RLU(0))]×100 RLU(A,X): Luminous intensity expressed in relative luminescence units (RLU) for the case where the test compound (A) X (mol/L) and PGE2 10^−8 mol/L were both added; RLU(PGE2): Luminous intensity for the case where only PGE2 10^−8 mol/L was added; RLU(0): Luminous intensity for the case where neither test compound nor PGE2 was added.
# In addition, a dose-response curve was plotted from the EP4 receptor antagonistic activities at varying concentrations of each test compound and using the following approximation formula, the IC50 (the concentration of the test compound required to inhibit the PGE2 inducing activity by 50%) was calculated to determine the intensity of the compound's EP4 receptor antagonistic activity. The results are shown in Table 2: Y=Bottom+(Top−Bottom)/{1+10^(Log IC50−Log X)} Bottom: 0 Top: 100 X: Concentration of the test compound (mol/L) Y: EP4 receptor antagonistic activity (%)
# [2] = tested on: Carrageenin Induced Hyperalgesia in Rats; assay: Analgesic effect on carrageenin induced hyperalgesia in rats; format: in vivo; settings: Rattus norvegicus, 2 h; SD male rats, oral 10 mg/5 mL/kg six hours after carrageenin, nociceptive threshold (Randall-Selitto) two hours after administration; 5˜7 cases; read-out: Percent Effectiveness
# Protocol: Test for Evaluating Analgesic Effect on Carrageenin Induced Hyperalgesia in Rats
# The animals were SD male rats (5-week old). Before treatment with carrageenin (or distilled water), the rats were measured for nociceptive thresholds in their right hind leg by the Randall-Selitto method and divided into a carrageenin treatment group and a non-treatment group to provide uniformity in nociceptive threshold. The carrageenin treatment group was given a 1 w/v % carrageenin solution and the non-treatment group given distilled water, each administered subcutaneously to the footpad of the right hind leg at a dose of 0.1 mL. Five hours after the treatment, the nociceptive thresholds were measured and the individuals with decreased thresholds were selected and grouped such that there was no inter-group difference in threshold. Six hours after the treatment, each test compound was orally administered at a dose of 10 mg/5 mL/kg. The control group was administered 0.5% methylcellulose. Two hours after the administration of the test compound (8 hours after the treatment), the nociceptive threshold was measured. The animals in the test compound group that had nociceptive thresholds greater than [(the mean nociceptive threshold of the control group)+2×standard deviation] were found “effective animals” and the percent effectiveness of each compound was calculated.
# [3] = tested on: Adjuvant Induced Arthritis in Rats; assay: Anti-inflammatory and analgesic effects on adjuvant induced arthritis in rats; format: in vivo, rat; parameters: Percent Effectiveness: scale not given: direction of the effect not stated beside the values; settings: Lewis male rats, oral 0.3 mg/kg once a day, day 9 to day 17 after adjuvant; for Percent paw edema suppression: measured at day 18, means of 8˜10 cases; for Percent Effectiveness: pain threshold at day 18, 8˜10 cases
# Protocol: Test for Evaluating Anti-Inflammatory and Analgesic Effects on Adjuvant Induced Arthritis in Rats
# The animals were Lewis male rats (6-week old). An adjuvant solution (2 mg/mL) was administered intradermally to the footpad of the left hind leg of each animal at a dose of 0.1 mL to create an arthritis model. Paw volume was measured with a paw volume meter (PLETHYSMOMETER, Ugo Basile Model 7141). For evaluation of pain thresholds, a probe fitted to the sensor site of Pressure Application Measurement (PAM, Ugo Basile Model 38500) was used to turn the foot sole of a rat upward (dorsiflexion) until it gave an indication of pain or discomfort (vocalization) and the load being applied was measured. Eight days after the treatment with the adjuvant, the paw volume and pain threshold of each treated foot were measured and the animals were grouped for oral administration of each test compound (0.3 mg/kg) which was performed for nine days on a once-a-day schedule starting at day 9 and ending at day 17 after the treatment. At day 18 after the treatment, the paw volume and pain threshold of each […] foot were measured.
# The anti-inflammatory effect of the test compound was confirmed using the percent paw edema suppression as an indicator. Percent paw edema suppression (%)=[(paw volume change in the control group−paw volume in each treatment group)/(paw volume change in the control group−paw volume change in the non-treatment group)]×100
# As for the analgesic effect, the animals in the test compound group that had nociceptive thresholds greater than [(the mean nociceptive threshold of the control group)+2×standard deviation] were found “effective animals” and the percent effectiveness of each compound was calculated.
# [4] = tested on: Carrageenin Induced Paw Edema in Rats; assay: Anti-inflammatory effect on carrageenin induced paw edema in rats; format: in vivo, rat; settings: positive control, maximum efficacy at doses of 10˜30 mg/kg
# Protocol: Test for Evaluating the Anti-Inflammatory Effect on Carrageenin Induced Paw Edema in Rats
# The animals were Wistar male rats (7-week old). The paw volume of the right hind leg was measured with a paw volume meter (PLETHYSMOMETER, Ugo Basile Model 7141 or 7150). One hour after orally administering a test compound at a dose of 10 mg/5 mL/kg, a carrageenin treatment group was given a 1 w/v % carrageenin solution and a non-treatment group given distilled water, each administered subcutaneously to the footpad of the right hind leg at a dose of 0.1 mL. Four hours after the treatment with carrageenin (or distilled water), the paw volume was measured and the change in paw volume from the pre-treatment value was calculated. The anti-inflammatory effect of the test compound was confirmed using the percent paw edema suppression (see below) as an indicator. In the present experimental models, Cerecoxib (COX inhibitor already available on the market as an anti-inflammatory/analgesic agent) was used as a positive control.
# T1 sequence (P43114 whole entry): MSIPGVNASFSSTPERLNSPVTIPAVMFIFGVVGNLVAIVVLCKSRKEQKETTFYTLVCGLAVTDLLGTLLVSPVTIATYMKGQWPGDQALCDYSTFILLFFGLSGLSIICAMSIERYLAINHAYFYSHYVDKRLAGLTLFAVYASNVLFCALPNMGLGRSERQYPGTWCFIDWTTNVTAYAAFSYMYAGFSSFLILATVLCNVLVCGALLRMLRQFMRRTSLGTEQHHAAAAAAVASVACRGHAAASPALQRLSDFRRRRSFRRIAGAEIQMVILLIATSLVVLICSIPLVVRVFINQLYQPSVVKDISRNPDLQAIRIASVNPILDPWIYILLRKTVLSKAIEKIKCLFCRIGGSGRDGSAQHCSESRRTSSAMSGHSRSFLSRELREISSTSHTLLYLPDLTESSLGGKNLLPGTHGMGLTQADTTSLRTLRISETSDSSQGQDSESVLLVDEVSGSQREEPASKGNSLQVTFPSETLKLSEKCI
Compound,IC50 [1] [nM],further results
"CC(C)(O)C#Cc1nc(C2CC2)n(Cc2ccc(C(F)(F)F)cc2)c1C(=O)NCc1ccc(C(=O)O)cc1 [Compound 20, 4-({2-cyclopropyl-4-(3-hydroxy-3-methyl-1-butyn-1-yl)-1-[4-(trifluoromethyl)benzyl]-1H-imidazole-5-carboxamido}methyl)benzoic acid]",64.6,
Cc1ccc(Cn2c(Cl)nc(C#CC(C)(C)O)c2C(=O)NC2(c3ccc(C(=O)O)cc3)CC2)cc1 [Compound 68],6.1,
"COC(C)(C)C#Cc1nc(Cl)n(Cc2ccc(C)cc2)c1C(=O)NC1(c2ccc(C(=O)O)cc2)CC1 [Compound 67, 4-(1-{2-Chloro-4-(3-methoxy-3-methyl-1-butyn-1-yl)-1-(4-methylbenzyl)-1H-imidazole-5-carboxamido}cyclopropyl)benzoic acid]",2.1,responders at 10 mg/kg [2]: 100%
COC(C)(C)C#Cc1nc(Cl)n(Cc2ccc(OC(F)F)cc2)c1C(=O)NCC1CCC(C(=O)O)CC1 (centres unmarked) [Compound 51],7.9,
CC(C)(O)C#Cc1nc(Cl)n(Cc2ccc(C(F)(F)F)cc2)c1C(=O)NC1(c2ccc(C(=O)O)cc2)CC1 [Compound 4],3,
"COC(C)(C)C#Cc1nc(Cl)n(Cc2ccc(C(F)F)cc2)c1C(=O)NC[C@H]1CC[C@H](C(=O)O)CC1 [Compound 60, trans-4-({2-Chloro-1-[4-(difluoromethyl)benzyl]-4-(3-methoxy-3-methyl-1-butyn-1-yl)-1H-imidazole-5-carboxamido}methyl)cyclohexanecarboxylic acid]",10.2,
COC(C)(C)C#Cc1nc(Cl)n(Cc2ccc(C(F)(F)F)cc2)c1C(=O)NCc1ccc(C(=O)O)cc1 [Compound 41],8.4,
COC(C)(C)C#Cc1nc(C(F)F)n(CCOc2ccc(Cl)cc2)c1C(=O)NCc1ccc(C(=O)O)cc1 [Compound 64],26.1,
COC(C)(C)C#Cc1nc(Cl)n(Cc2ccc(OC(F)(F)F)cc2)c1C(=O)N[C@@H](C)c1ccc(C(=O)O)cc1 [Compound 50],1.1,
"Cc1ccc(Cn2c(Cl)nc(C#CC(C)(C)O)c2C(=O)NC[C@H]2CC[C@H](C(=O)O)CC2)cc1 [Compound 21, trans-4-{[2-Chloro-4-(3-hydroxy-3-methyl-1-butyn-1-yl)-1-(4-methylbenzyl)-1H-imidazole-5-carboxamido]methyl}cyclohexanecarboxylic acid]",26.4,Percent paw edema suppression [3]: 53%; Percent Effectiveness [3]: 20%
"COC(C)(C)C#Cc1nc(Cl)n(Cc2ccc(F)cc2)c1C(=O)NCc1ccc(C(=O)O)cc1 [Compound 56, 4-{[2-Chloro-1-(4-fluorobenzyl)-4-(3-methoxy-3-methyl-1-butyn-1-yl)-1H-imidazole-5-carboxamido]methyl}benzoic acid]",49.9,
"CC(C)(O)C#Cc1nc(Cl)n(Cc2ccc(C(F)(F)F)cc2)c1C(=O)NC[C@H]1CC[C@H](C(=O)O)CC1 [Compound 1, trans-4-({2-Chloro-4-(3-hydroxy-3-methyl-1-butyn-1-yl)-1-[4-(trifluoromethyl)benzyl]-1H-imidazole-5-carboxamido}methyl)cyclohexanecarboxylic acid]",23.8,Percent paw edema suppression [3]: 54%; Percent Effectiveness [3]: 30%
"Cc1ccc(-c2cc(C(F)(F)F)nn2-c2ccc(S(N)(=O)=O)cc2)cc1 [Cerecoxib, reference compound]",,Percent paw edema suppression at the maximum efficacy [4]: 32˜37%
COC(C)(C)C#Cc1nc(Cl)n(CCOc2ccc(Cl)cc2)c1C(=O)NCc1ccc(C(=O)O)cc1 [Compound 45],5.1,responders at 10 mg/kg [2]: 50%
O=C(NCC1CCC(C(=O)O)CC1)c1c(C#CC2(O)CCCC2)nc(Cl)n1Cc1ccc(C(F)(F)F)cc1 (centres unmarked) [Compound 16],7.3,
"CC(C)(O)C#Cc1nc(Cl)n(Cc2ccc(C(F)(F)F)cc2)c1C(=O)NCc1ccc(C(=O)O)cc1 [Compound 2, 4-({2-Chloro-4-(3-hydroxy-3-methyl-1-butyn-1-yl)-1-[4-(trifluoromethyl)benzyl]-1H-imidazole-5-carboxamido}methyl)benzoic acid]",14.1,Percent paw edema suppression [3]: 21%; Percent Effectiveness [3]: 38%
COC(C)(C)C#Cc1nc(Cl)n(Cc2cccc(OC(F)F)c2)c1C(=O)NCc1ccc(C(=O)O)cc1 [Compound 54],16.1,
CC(C)(O)C#Cc1nc(Cl)n(CCOc2ccc(Cl)cc2)c1C(=O)NCc1ccc(C(=O)O)cc1 [Compound 44],17.5,responders at 10 mg/kg [2]: 50%
"CC(C)(C#Cc1nc(Cl)n(CCOc2ccc(Cl)cc2)c1C(=O)NC[C@H]1CC[C@H](C(=O)O)CC1)CO [Compound 61, Trans-4-({2-chloro-1-[2-(4-chlorophenoxy)ethyl]-4-(4-hydroxy-3,3-dimethyl-1-butyn-1-yl)-1H-imidazole-5-carboxamido}methyl)cyclohexanecarboxylic acid]",26.6,
COC(C)(C)C#Cc1nc(Cl)n(Cc2ccc(OC(F)F)cc2)c1C(=O)NCc1ccc(C(=O)O)cc1 [Compound 52],7.9,
